The values that follow come from patent US20080234132A1, “Microcin B17 Analogs And Methods For Their Preparation And Use” (priority 2004, published 2008).

Some results are limits rather than exact numbers.

Test [1] concerns E. coli. As to the kind of experiment: In vivo E. coli (Table 5-C summary of haloassays). It is filed as cell-based. The conditions noted are these: number = not active up to this concentration.
Description: Lawns of cells were prepared by spreading, on top of a LB+Agar plate, 3 ml of melted LSS medium (half-agar strength: 0.3 g Agar/50 ml LB) inoculated with 100 μl of a 10 ml LB overnight culture of E. coli cells grown at 37° C. […] The plates were incubated at 37° C. overnight and growth inhibition was qualitatively analysed by measuring the diameter of each halo.
The test system of test [2] is E. coli. As to the kind of experiment: In vivo E. coli activity (Table 5-C). It is filed as cell-based. The note with it: cell reads on: Active. The procedure:
In vivo activity was tested using the bioassay developed by Sinha Roy, 1999, with some modifications. The Microcin-sensitive E. coli DH5α was used as the indicator strain. Lawns of cells were prepared by spreading 100 μL of a 10 mL LB culture grown at 37° C. overnight mixed with 3 mL of LSS, on LB+agar (10 g/L) plates. […] The plates were incubated at 37° C. overnight and halos of growth inhibition were qualitatively analyzed by determining their diameters (see FIG. 9).
Lawns of cells were prepared by spreading, on top of a LB+Agar plate, 3 ml of melted LSS medium (half-agar strength: 0.3 g Agar/50 ml LB) inoculated with 100 μl of a 10 ml LB overnight culture of E. coli cells grown at 37° C. Halo assays with MccB17 generally used a DH5α strain (Novagen) but the inventors used the standard E. coli strain (K12) because it is from this strain that the microcin B17-resistant mutant W751R was obtained. […] The plates were incubated at 37° C. overnight and growth inhibition was qualitatively analysed by measuring the diameter of each halo.
Haloassays were performed as described above.

The target in another test is Human topoisomerase IIα (Homo sapiens, UniProt P11388). The test can be described thus: Human Topoisomerase IIα-mediated relaxation assay. It is filed as biochemical. The conditions noted are these: read-out: Topo IIα Human, R (relaxation reaction) IC50. Also on record: purchased TopoGEN Inc. (Port Orange, Fla., USA). How it is done:
Human Topoisomerase IIα-mediated relaxation assays and decatenation assays were performed as per the manufacturer's instructions in a total of 20 μL. Relaxation assays contained Topoisomerase IIα (4.3 nM), 50 mM Tris.HCl pH 8,120 mM KCl, 10 mM MgCl2, 0.5 mM DTT, 0.5 mM ATP, 4.6 nM of supercoiled pBR322 DNA, and inhibitor where appropriate. Decatenation assays substituted the supercoiled DNA with 200 ng catenated kinetoplast DNA.
All in vitro reactions were incubated at 37° C. for 30 minutes. The DMSO concentration in each reaction was kept constant at 3.33%. Reactions were quenched with the addition of an equal volume of phenol/chloroform/isoamyl alcohol (25:24:1) and one tenth volume of loading buffer containing 40% sucrose, 100 mM Tris.HCl pH 7.5, 100 mM EDTA, 2 mg/mL bromophenol blue. The proteins were precipitated by vortexing, followed by centrifugation for 5 minutes at 16 000 g. The aqueous phase was loaded onto 1% agarose gels in Tris-acetate and were electrophoresed at 60 V for three hours in Tris-acetate buffer. The gels were stained in 1 μg/mL ethidium bromide. The gels were visualised using UV light and were documented and analysed using Syngene software.

Another test addresses E. coli Topoisomerase IV (Escherichia coli, UniProt P0AFI2+P20083). As to the kind of experiment: biochemical. It is filed as biochemical. Also on record: purchased John Innes Enterprises (Norwich, UK).
In another test the test system is HT-29 cells. As to the kind of experiment: cells. It is filed as cell-based, human. The note with it: Homo sapiens, HT-29; MTT, 24 hours; read-out: In vivo HT29 Cells (approximate IC50). How it is done:
(§1) Human cell cultures were initiated from frozen cell stocks (the gift of Dr J. Gavrilovic, UEA). The HT-29 line is derived from a colorectal adenocarcinoma while HeLa cells are derived from a cervical epithelial adenocarcinoma (see FIG. 35). Both human cell lines form adherent cultures and were maintained at 37° C. in T25 culture vessels as 10 mL cultures in CO2 Independent Media containing 10% foetal bovine serum (EU approved), 4 mM L-glutamine, penicillin/streptomycin (Invitrogen). A subcultivation ratio of 1:3 and 1:6 were maintained for HT-29 and HeLa lines respectively. Media was renewed every three days.
(§2) The assay to determine the effects of the heterocyclic compounds on mammalian cells is based on the cleavage of the yellow tetrazolium salt MTT to purple formazoan crystals by metabolically active cells (Roche). After incubation with MTT and solubilization, the resulting coloured solution is quantified using a scanning spectrophotometer. Each of the cell lines was trypsinised and resuspended in fresh media prior to transfer to sterile flat-bottomed microtitre plates (200 μL per well) and allowed to recover for 16 hours. Five thousand HT-29 or 7500 HeLa cells per 100 μL culture medium were incubated in the presence of the drugs in various concentrations (totalling 10 μL) for 24 hours. Cell viability was then determined by addition of MTT reagent (20 μL) in each well, as per manufacturer's instructions and incubated for a further 4 hours. Solubilization solution (100 μL) was added per well and the plates incubated overnight at 37° C. The plates were read in a spectrophotometer (scanning from 500-650 nm, signal peak at 570 nm). A representative result is illustrated in FIG. 36.

Another test relates to HeLa cells. As to the kind of experiment: cells. It is filed as cell-based, human. The conditions noted are these: Homo sapiens, HeLa; MTT, 24 hours; read-out: In vivo HeLa Cells (approximate IC50). The procedure:
as §1, §2

E. coli Topoisomerase IV, sequence (P20083 whole entry): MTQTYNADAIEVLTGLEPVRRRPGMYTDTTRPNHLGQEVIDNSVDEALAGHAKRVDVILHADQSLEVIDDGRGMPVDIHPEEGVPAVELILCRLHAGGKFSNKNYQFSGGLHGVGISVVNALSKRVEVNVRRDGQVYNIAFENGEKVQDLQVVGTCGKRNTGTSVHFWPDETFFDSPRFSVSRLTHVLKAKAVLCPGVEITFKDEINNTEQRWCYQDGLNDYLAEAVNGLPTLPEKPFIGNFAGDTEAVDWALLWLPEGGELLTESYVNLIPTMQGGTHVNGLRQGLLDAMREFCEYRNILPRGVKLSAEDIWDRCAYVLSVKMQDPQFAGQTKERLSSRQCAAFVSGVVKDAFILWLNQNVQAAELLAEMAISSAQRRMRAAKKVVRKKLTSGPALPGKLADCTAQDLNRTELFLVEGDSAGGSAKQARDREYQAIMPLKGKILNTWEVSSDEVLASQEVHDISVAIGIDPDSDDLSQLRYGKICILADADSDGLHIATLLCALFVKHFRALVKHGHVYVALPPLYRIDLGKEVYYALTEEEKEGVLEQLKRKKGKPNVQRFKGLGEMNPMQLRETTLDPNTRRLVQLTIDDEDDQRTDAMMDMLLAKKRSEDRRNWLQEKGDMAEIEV
E. coli Topoisomerase IV, sequence (P0AFI2 whole entry): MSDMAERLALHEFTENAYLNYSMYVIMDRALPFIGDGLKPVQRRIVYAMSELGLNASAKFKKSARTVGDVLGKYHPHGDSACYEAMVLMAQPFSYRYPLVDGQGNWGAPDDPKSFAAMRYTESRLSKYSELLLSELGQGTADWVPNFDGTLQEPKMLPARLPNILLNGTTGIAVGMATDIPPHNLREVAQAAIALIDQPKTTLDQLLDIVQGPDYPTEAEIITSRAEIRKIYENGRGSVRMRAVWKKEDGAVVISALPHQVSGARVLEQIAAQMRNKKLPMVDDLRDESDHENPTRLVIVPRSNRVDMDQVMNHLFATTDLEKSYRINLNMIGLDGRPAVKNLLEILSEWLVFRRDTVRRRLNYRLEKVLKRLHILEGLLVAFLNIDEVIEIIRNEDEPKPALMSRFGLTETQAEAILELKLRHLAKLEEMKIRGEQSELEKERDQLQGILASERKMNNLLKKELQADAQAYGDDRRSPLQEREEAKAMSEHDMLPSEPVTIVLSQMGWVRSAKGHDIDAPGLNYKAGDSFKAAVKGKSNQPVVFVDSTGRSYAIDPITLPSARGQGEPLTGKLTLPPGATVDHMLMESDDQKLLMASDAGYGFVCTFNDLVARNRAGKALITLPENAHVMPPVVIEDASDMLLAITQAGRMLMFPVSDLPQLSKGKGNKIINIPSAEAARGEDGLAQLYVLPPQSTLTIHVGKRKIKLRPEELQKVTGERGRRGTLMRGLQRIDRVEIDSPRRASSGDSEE
Human topoisomerase IIα, sequence (P11388 whole entry): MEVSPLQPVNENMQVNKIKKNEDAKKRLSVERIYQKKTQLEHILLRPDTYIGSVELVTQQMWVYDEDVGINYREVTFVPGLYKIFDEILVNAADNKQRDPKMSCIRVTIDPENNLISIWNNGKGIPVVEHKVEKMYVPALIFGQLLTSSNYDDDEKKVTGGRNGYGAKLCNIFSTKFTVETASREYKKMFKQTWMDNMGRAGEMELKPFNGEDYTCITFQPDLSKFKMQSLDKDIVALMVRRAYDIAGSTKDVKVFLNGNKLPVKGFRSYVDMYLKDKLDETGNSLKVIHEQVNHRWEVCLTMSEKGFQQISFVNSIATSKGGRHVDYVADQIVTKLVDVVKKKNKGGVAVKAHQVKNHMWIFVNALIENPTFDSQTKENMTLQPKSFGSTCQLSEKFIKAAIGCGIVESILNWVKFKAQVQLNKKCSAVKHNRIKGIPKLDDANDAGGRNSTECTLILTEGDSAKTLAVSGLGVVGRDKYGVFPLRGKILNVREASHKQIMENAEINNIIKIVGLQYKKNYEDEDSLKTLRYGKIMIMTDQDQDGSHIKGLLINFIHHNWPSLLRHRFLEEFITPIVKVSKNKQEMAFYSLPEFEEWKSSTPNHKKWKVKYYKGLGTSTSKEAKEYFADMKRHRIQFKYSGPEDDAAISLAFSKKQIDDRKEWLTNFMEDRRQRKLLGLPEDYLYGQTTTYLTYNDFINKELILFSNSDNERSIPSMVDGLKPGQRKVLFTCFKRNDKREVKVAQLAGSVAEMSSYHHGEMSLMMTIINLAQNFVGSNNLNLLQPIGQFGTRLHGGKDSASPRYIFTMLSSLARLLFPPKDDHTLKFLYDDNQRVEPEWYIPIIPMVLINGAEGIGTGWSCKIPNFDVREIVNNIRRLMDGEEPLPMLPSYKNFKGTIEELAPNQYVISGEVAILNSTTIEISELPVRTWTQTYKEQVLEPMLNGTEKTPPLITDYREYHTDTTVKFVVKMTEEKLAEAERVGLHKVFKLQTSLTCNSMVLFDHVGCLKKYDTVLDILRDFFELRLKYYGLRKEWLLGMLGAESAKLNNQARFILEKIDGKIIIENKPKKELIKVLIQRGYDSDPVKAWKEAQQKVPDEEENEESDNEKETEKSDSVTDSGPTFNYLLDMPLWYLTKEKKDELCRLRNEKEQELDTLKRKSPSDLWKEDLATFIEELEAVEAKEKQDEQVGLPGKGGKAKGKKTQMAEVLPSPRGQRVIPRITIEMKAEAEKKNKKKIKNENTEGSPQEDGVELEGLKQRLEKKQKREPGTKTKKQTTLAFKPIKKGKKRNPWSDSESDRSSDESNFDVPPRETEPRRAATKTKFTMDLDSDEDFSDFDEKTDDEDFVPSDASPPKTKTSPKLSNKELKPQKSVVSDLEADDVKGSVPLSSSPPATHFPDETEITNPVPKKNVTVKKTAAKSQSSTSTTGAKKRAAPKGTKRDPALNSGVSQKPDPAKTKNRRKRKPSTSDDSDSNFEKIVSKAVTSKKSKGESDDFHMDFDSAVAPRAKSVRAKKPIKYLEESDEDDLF
Description for E. coli Topoisomerase IV: Topoisomerase IV-mediated relaxation assays and decatenation assays were performed as previously described (see Peng and Marians, 1993). […] Decatenation assays contained topoisomerase IV (4 nM), 40 mM Tris HCl pH 7.5 at 30° C., 6 mM MgCl2, 10 mM DTT, 1 mM spermidine.HCl, 100 mM potassium glutamate, 0.5 mM ATP, 0.5 mg/mL BSA, 200 ng of kinetoplast DNA, and inhibitor where appropriate.

A word on the IC50: it is the concentration that gives 50% inhibition. Take `CC(C)(C)OC(=O)NCc1nc(C(=O)O)co1` [#6]: the “In vivo E. coli” value in the test on E. coli [1] is given as “(→400 μM)”. For the same compound, the “In vivo E. coli activity, up to 400 μM” value with E. coli [2] is listed as “Not”. Moreover, the IC50 on Human topoisomerase IIα was above 250 µM; at E. coli Topoisomerase IV (read-out: Topo IV, D (decatenation reaction) IC50), 200 µM; in the test on HT-29 cells, above 75 µM; with HeLa cells, above 75 µM. Further, the “Topo IV, D (decatenation reaction) IC50” value at E. coli Topoisomerase IV is given as “weakly”.
